Values of other authors, collected in patent US6994864B2, “Composition containing 7-hydroxy DHEA and/or 7-keto DHEA and at least a carotenoid” (L'Oreal, priority 2000, dated 2006).

How the values were obtained:
skin of rats = details: on rats

C[C@]12CC[C@H](O)CC1=C[C@@H](O)[C@@H]1[C@@H]2CC[C@]2(C)C(=O)CC[C@@H]12 [7α-hydroxy-DHEA]
viability of the human keratinocytes (human keratinocytes): increase
proliferation of the fibroblasts (fibroblasts): increase
elastin and collagen content of the skin (skin of rats): increased
thickness of the dermis (skin of rats): increased
